Where two headings read alike, the source gives them in different places.

Results on seven compounds are retold here after patent US12466840B2, “Small molecule inhibitors of KRAS proteins” (Merck Sharp & Dohme LLC, priority 2023, dated 2025).

Experiment [1] concerns MKN-1 cells (amplified wild-type KRAS). As to the kind of experiment: Cellular phospho-ERK assay, MKN-1 cells. The experiment is classed as cell-based. The following applies: 2 h, p-ERK vs. total ERK, read-out: MKN1 pERK IC50. The method, then: Procedure for Cellular Phospho-ERK Assay in KRAS Wild Type and Mutant (G12D, G12V) Cell Lines
MKN-1 cells (JCRB JCRB0252) containing amplified wild-type KRAS, were cultured in growth medium that contains RPMI 1640-GlutaMAX™-I (ThermoFisher Scientific 61870) containing 10% heat inactivated fetal bovine serum (ThermoFisher Scientific 10091148), 1 mM sodium pyruvate and 10 mM HEPES. AsPC-1 cells (ATCC® CRL-1682™), containing homozygous KRAS-G12D activating mutation, were cultured in T150 flask in growth medium (RPMI medium 1640-GlutaMAX™-I (ThermoFisher Scientific 61870) containing 10% fetal bovine serum (ThermoFisher Scientific 10091148)). SW620 cells (ATCC® CRL-227™) containing homozygous KRAS-G12V activating mutation, were cultured in growth medium that contains RPMI 1640-GlutaMAX™-I (ThermoFisher Scientific 61870) containing 10% heat inactivated fetal bovine serum (ThermoFisher Scientific 10091148).
Cells for the assay were harvested in growth medium after TrypLE (ThermoFisher scientific 12604021) digestion and were seeded in a 384-well collagen coated cell culture plate (Corning 356702) at a density of 10,000-15,000 cells/[…]/well, and incubated at 37° C., 5% CO2 overnight. The compound (with 10 mM stock concentration) dose-response titrations were prepared [30 μM final ERK detection assay concentration and 1:3 dilutions, 10-point dose response] and appropriate amounts (270 nL) of test compounds were dispensed in a 384-well intermediate plate using an Echo 550 liquid handler. 30 μL/well of RPMI medium 1640-GlutaMAX™-I was added to the intermediate plate and the contents of the intermediate plate (10 μL/well) were then transferred to the 384-well collagen coated cell culture plate, which was incubated at 37° C., 5% CO2 for 2 h. After removal of medium from the collagen coated cell culture plate, cells were lysed in lysis buffer from Alpha SureFire® Ultra™ Multiplex p-ERK and total ERK assay kit (PerkinElmer MPSU-PTERK) containing Halt™ Protease and Phosphatase inhibitor cocktail (ThermoFisher Scientific 78446) at room temperature with constant shaking at 300 rpm for 30 minutes. The cell lysates were then transferred to an OptiPlate-384 plate (PerkinElmer 6005620), and the phosphorylation of ERK (p-ERK) and total ERK levels were detected by Alpha SureFire® Ultra™ Multiplex p-EEK kit and total ERK assay kit (PerkinElmer MPSU-PTERK) following the manufacturer's protocol. Assay plates were read on a EnVision Multimode Plate Reader (PerkinElmer), and the ratio of p-ERK vs. total ERK in each well was used as the final readout. Dose response curves were analyzed using a 4-parameter logistic model to calculate IC50 values using Spotfire software.

The target in the next experiment is KRAS WT (Homo sapiens (Human), UniProt P01116). As to the kind of experiment: SOS-catalyzed nucleotide exchange assay (GNE), KRAS WT. It counts as biochemical. The conditions noted are these: TR-FRET, 60 min preincubation. An excerpt: (§1) Procedure for SOS-Catalyzed Nucleotide Exchange Assay for KRAS-WT, G12C/D/V/A/R/S, G13D, Q61H, HRAS-WT, and NRAS-WT
(§2) Recombinant KRAS-G12C protein used in this assay has an additional triple mutation (C51S/C80L/C118S). Whereas KRAS-WT, G12D/V/A/S/R, G13D, Q61H, HRAS and NRAS are in context of their WT protein sequence background. Specifically, the SOS-catalyzed nucleotide exchange assay utilizes a preformed TR-FRET complex containing a specific biotinylated RAS protein (KRAS-WT, G12C/V/D/A/S/R, G13D, Q61H, HRAS-WT, NRAS-WT; described above) with Bodipy-GDP, and Terbium-streptavidin. Compounds are preincubated with this complex for 60 minutes. Subsequently, recombinant human SOS protein and unlabeled GTP are added to initiate the exchange reaction. Small molecule inhibitors stabilize the Bodipy-GDP complex whereas the untreated protein rapidly exchanges Bodipy-GDP for unlabeled GTP resulting in reduced TR-FRET signal.
(§3) To assemble the preformed TR-FRET complexes, each biotinylated RAS protein is diluted to 2 μM in an EDTA Buffer (20 mM HEPES pH 7.5, 50 mM sodium chloride, 10 mM EDTA, and 0.01% Tween) and incubated at room temperature for one hour. This mixture is then further diluted to 90 nM in an Assay Buffer (20 mM HEPES pH 7.5, 150 mM sodium chloride, 10 mM magnesium chloride, and 0.005% Tween) containing 15 nM of Terbium-Streptavidin (Invitrogen, catalog #PV3577) and 900 nM of Bodipy-GDP (Invitrogen, catalog #G22360) and incubated at room temperature for six hours. It should be noted that this preformed TR-FRET complex for each of the RAS protein were made ahead of time, aliquoted and stored at −80° C. until the day of the experiment.
(§4) Each test compound (10 mM stock in DMSO) is diluted in DMSO to make a final-10-point, 3-fold dilution and is acoustically dispensed into a 384-well assay plate (Corning, catalog #3820) using an Echo 550 (Labcyte). Each well of the assay plate receives 3 μL of a specific 3×RAS preformed TR-FRET complex and 3 μL of Assay Buffer and is incubated at room temperature for 60 minutes (preincubation time). Each well then receives 3 μL of 3× recombinant human SOS protein and GTP (Sigma, G8877) in Assay Buffer and is incubated at room temperature for 30 minutes (G13D), 60 minutes (KRAS WT/G12C/D, H/NRAS) or 90 minutes for G12A/R/S/V and Q61H. The final reaction in each well of 9 μL consists of 3 mM GTP, specific Ras and SOS proteins in the following concentrations: KRAS-G12C/SOS=3 nM/40 nM, KRAS-WT and G12D/SOS=1 nM/40 nM, KRAS-G12V/SOS=1.25 nM/160 nM, KRAS-G12A/S/SOS=1 nM/160 nM, KRAS-G12R/SOS=1 nM/320 nM, KRAS-Q61H/SOS=1 nM/320 nM, KRAS-G13D/SOS=1.25 nM/[…], HRAS-WT and NRAS-WT=1.25 nM/40 nM.
(§5) The time-resolved fluorescence resonance energy transfer (TR-FRET) signal is measured on an Envision (PerkinElmer) plate reader: Excitation filter=340 nm; emission1=495 nm; emission2=520 nm; dichroic mirror=D400/D505; delay time=[…]. The signal of each well is determined as the ratio of the emission at 520 nm to that at 495 nm. Percent effect of each well is determined after normalization to control wells containing DMSO (no effect) or a saturating concentration of inhibitor (max effect). The apparent effect as a function of compound concentration is fit to a four-parameter logistic equation.
A general note: TR-FRET usually uses a lanthanide donor and a delayed reading to cut background.

The target of another experiment is KRAS G12C (Homo sapiens (Human), UniProt P01116, C118S/C51S/C80L/G12C). As to the kind of experiment: SOS-catalyzed nucleotide exchange assay (GNE), KRAS G12C. The following applies: TR-FRET, 60 min preincubation; protein with C51S/C80L/C118S. It counts as biochemical.
Source text: as §1, §2, §3, §4, §5

KRAS WT, sequence (P01116 other isoform, or with tags, fused parts or gaps): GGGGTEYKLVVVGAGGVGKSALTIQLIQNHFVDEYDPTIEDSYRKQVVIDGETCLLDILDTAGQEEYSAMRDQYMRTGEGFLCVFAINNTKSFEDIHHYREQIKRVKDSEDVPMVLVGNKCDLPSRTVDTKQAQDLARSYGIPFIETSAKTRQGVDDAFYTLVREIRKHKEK
KRAS G12C, sequence (P01116 other isoform, or with tags, fused parts or gaps, stated change not applied): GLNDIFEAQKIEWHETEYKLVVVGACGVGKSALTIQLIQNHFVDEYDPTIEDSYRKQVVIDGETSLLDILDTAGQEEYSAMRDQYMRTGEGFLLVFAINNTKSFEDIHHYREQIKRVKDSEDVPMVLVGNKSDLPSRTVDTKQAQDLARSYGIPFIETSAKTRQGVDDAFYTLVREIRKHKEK

For `F/C=C1/CN2CCC[C@@]2(COc2nc3c4c(nc(-c5c(C6CC6)c(Cl)cc6[nH]ncc56)c(F)c4n2)OC[C@@H]2COCCCN32)C1` [Ex-1, (8aS)-5-(6-chloro-5-cyclopropyl-1H-indazol-4-yl)-4-fluoro-2-(((S,Z)-2-(fluoromethylene)tetrahydro-1H-pyrrolizin-7a(5H)-yl)methoxy)-8a,9,12,13-tetrahydro-8H,11H-7,10-dioxa-1,3,6,13a-tetraazanaphtho[1,8-ab]heptalene], the IC50 – broadly, the concentration at which inhibition is half-maximal – came out at 9.1 nM in experiment [1], 0.87 nM against KRAS WT and 6.9 nM at KRAS G12C.

For the compound `CCc1c(F)ccc2cc3[nH]ncc3c(-c3nc4c5c(nc(OC[C@@]67CCCN6C[C@H](F)C7)nc5c3F)N3CCCOC[C@H]3CO4)c12` [Ex-2, (8aS)-5-(5-ethyl-6-fluoro-1H-benzo[f]indazol-4-yl)-4-fluoro-2-(((2R,7aS)-2-fluorotetrahydro-1H-pyrrolizin-7a(5H)-yl)methoxy)-8a,9,12,13-tetrahydro-8H,11H-7,10-dioxa-1,3,6,13a-tetraazanaphtho[1,8-ab]heptalene], the IC50 stood at 7.9 nM in experiment [1], 1.1 nM against KRAS WT and 3.2 nM at KRAS G12C.

In the case of `Fc1c(-c2c(C3CC3)c(Cl)cc3[nH]ncc23)nc2c3c(nc(OC[C@@]45CCCN4C[C@H](F)C5)nc13)N1CCCOC[C@H]1CO2` [Ex-3, (8aS)-5-(6-chloro-5-cyclopropyl-1H-indazol-4-yl)-4-fluoro-2-(((2R,7aS)-2-fluorotetrahydro-1H-pyrrolizin-7a(5H)-yl)methoxy)-8a,9,12,13-tetrahydro-8H,11H-7,10-dioxa-1,3,6,13a-tetraazanaphtho[1,8-ab]heptalene], the IC50 worked out at 9.7 nM in experiment [1] (Homo sapiens) and 2.5 nM against KRAS WT.

Turning to `CCc1c(F)ccc2cc3[nH]ncc3c(-c3nc4c5c(nc(OC[C@@]67CCCN6C/C(=C\F)C7)nc5c3F)N3CCCOC[C@H]3CO4)c12` [Ex-4, (8aS)-5-(5-ethyl-6-fluoro-1H-benzo[f]indazol-4-yl)-4-fluoro-2-(((S,Z)-2-(fluoromethylene)tetrahydro-1H-pyrrolizin-7a(5H)-yl)methoxy)-8a,9,12,13-tetrahydro-8H,11H-7,10-dioxa-1,3,6,13a-tetraazanaphtho[1,8-ab]heptalene], the IC50 in experiment [1] (Homo sapiens) is 6.6 nM; against KRAS WT it was below 0.69 nM; against KRAS G12C it was 2.9 nM.

For `F/C=C1\CN2CCC[C@@]2(COc2nc3c4c(nc(-c5c(C6(F)CC6)c(Cl)cc6[nH]ncc56)c(F)c4n2)OC[C@@H]2COCCCN32)C1` [Ex-5, (8aS)-5-(6-chloro-5-(1-fluorocyclopropyl)-1H-indazol-4-yl)-4-fluoro-2-(((S,Z)-2-(fluoromethylene)tetrahydro-1H-pyrrolizin-7a(5H)-yl)methoxy)-8a,9,12,13-tetrahydro-8H,11H-7,10-dioxa-1,3,6,13a-tetraazanaphtho[1,8-ab]heptalene], the IC50 in experiment [1] (Homo sapiens) is 4.3 nM; against KRAS WT, below 0.69 nM; on KRAS G12C it was 3.3 nM.

`CCc1c(F)ccc2cc3[nH]nc(C)c3c(-c3nc4c5c(nc(OC[C@@]67CCCN6C[C@H](F)C7)nc5c3F)N3CCCOC[C@H]3CO4)c12` [Ex-6, (8aS)-5-(5-ethyl-6-fluoro-3-methyl-1H-benzo[f]indazol-4-yl)-4-fluoro-2-(((2R,7aS)-2-fluorotetrahydro-1H-pyrrolizin-7a(5H)-yl)methoxy)-8a,9,12,13-tetrahydro-8H,11H-7,10-dioxa-1,3,6,13a-tetraazanaphtho[1,8-ab]heptalene]: the results for the IC50 (in experiment [1] (Homo sapiens); on KRAS WT; on KRAS G12C) were 14 nM, 1.6 nM and 6.5 nM, respectively.

Turning to `CCc1c(F)ccc2cc3[nH]nc(C)c3c(-c3nc4c5c(nc(OC[C@@]67CCCN6C/C(=C\F)C7)nc5c3F)N3CCCOC[C@H]3CO4)c12` [Ex-7, (8aS)-5-(5-ethyl-6-fluoro-3-methyl-1H-benzo[f]indazol-4-yl)-4-fluoro-2-(((S,Z)-2-(fluoromethylene)tetrahydro-1H-pyrrolizin-7a(5H)-yl)methoxy)-8a,9,12,13-tetrahydro-8H,11H-7,10-dioxa-1,3,6,13a-tetraazanaphtho[1,8-ab]heptalene], the results for the IC50 (in experiment [1]; on KRAS WT; on KRAS G12C) were 12 nM, 1.4 nM and 11 nM, respectively.
